This is an account of results in patent US20250195530A1, “POLQ INHIBITORS” (ASTRAZENECA AB, priority 2022, published 2025).

Each structure is given as a SMILES string. A value given as a limit tells only on which side of the number the result lay.

One test has as its system DLD-1 BRCA2−/− cells. The experiment in a line: Homologous recombination synthetic lethal inhibition of proliferation, DLD-1 BRCA2-/- (Cell Titre Glo 3D). The class given is cell-based. The note with it: DLD-1 BRCA2−/− cells, 12 days. The gist of the method: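 Wild-type DLD-1 serves as the control for non-specific toxicity, and BRCA2-null DLD-1 as the homologous-recombination-deficient line. Both grew with compound from 10 μM down to 0.51 nM, re-dosed after 6 days. Luminescent ATP content (CellTiter-Glo 3D) was read after 7 or 12 days, respectively, to give IC50 values.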
Take `CC1NCCN(CCOc2ccc(-c3nc4c(OC5(C)CC5)ncnc4n3Cc3ccccc3)c(Cl)c2)C1=O` (single isomer, unassigned; isomer 2) [Example R14, 1-(2-(4-(9-benzyl-6-(1-methylcyclopropoxy)-9H-purin-8-yl)-3-chlorophenoxy)ethyl)-3-methylpiperazin-2-one (Isomer 2)]: the “POLQ PD Prolif Lumin BRCA2 −/− mean pIC50” value is 6.8.

The test is the same for the next values; noted with them: Homo sapiens, DLD-1, 288 h, DLD-1 BRCA2−/− cells, 12 days; read-out: POLQ PD Prolif Lumin BRCA2 −/− mean pIC50 (converted).
On to `CC1NCCN(CCOc2ccc(-c3nc4c(OC5(C)CC5)ncnc4n3Cc3ccccc3)c(Cl)c2)C1=O` (single isomer, unassigned; isomer 1) [Example R13, 1-(2-(4-(9-benzyl-6-(1-methylcyclopropoxy)-9H-purin-8-yl)-3-chlorophenoxy)ethyl)-3-methylpiperazin-2-one (Isomer 1)], for which the IC50 was 200 nM.

Regarding `CC1(Oc2ncnc3c2nc(-c2ccc(OCCNC(=O)CO)cc2Cl)n3Cc2ccccc2)CC1` [Example D26, N-(2-(4-(9-benzyl-6-(1-methylcyclopropoxy)-9H-purin-8-yl)-3-chlorophenoxy)ethyl)-2-hydroxyacetamide], the IC50 was 100 nM.

For the molecule `CC1(Oc2ncnc3c2nc(-c2ccc(OCCN4CCNCC4)cc2Cl)n3CCc2ccncc2)CC1` [Example L1, 8-(2-chloro-4-(2-(piperazin-1-yl)ethoxy)phenyl)-6-(1-methylcyclopropoxy)-9-(2-(pyridin-4-yl)ethyl)-9H-purine], the IC50 is greater than 10000 nM.

Take `CC1(Oc2ncnc3c2nc(-c2ccc(OCCN4CCNC(C)(C)C4=O)cc2Cl)n3Cc2ccccc2)CC1` [Example R16, 1-(2-(4-(9-benzyl-6-(1-methylcyclopropoxy)-9H-purin-8-yl)-3-chlorophenoxy)ethyl)-3,3-dimethylpiperazin-2-one]: the IC50 was 63.1 nM.

Take `CC1(Oc2ncnc3c2nc(-c2ccc(OCCN4CCN[C@@H](CC#N)C4)cc2Cl)n3Cc2ccccc2)CC1` [Example R23, (S)-2-(4-(2-(4-(9-benzyl-6-(1-methylcyclopropoxy)-9H-purin-8-yl)-3-chlorophenoxy)ethyl)piperazin-2-yl)acetonitrile]: the IC50 is 63.1 nM.

Still in this test, the particulars now being: Homo sapiens, DLD-1, DLD-1 BRCA2 −/− cells; mean; read-out: POLQ PD Prolif Lumin BRCA2 −/− mean pIC50 (converted).
Turning to `Cc1nnc(Cn2c(-c3ccc(CC(N)=O)cc3Cl)nc3c(OC4(C)CC4)ncnc32)s1` [Example T1, 2-(3-chloro-4-(9-((5-methyl-1,3,4-thiadiazol-2-yl)methyl)-6-(1-methylcyclopropoxy)-9H-purin-8-yl)phenyl)acetamide], the IC50 is greater than 10000 nM.

Consider `Cc1nnc(Cn2c(-c3ccc(CC(N)=O)cc3Cl)nc3c(OC4(C)CC4)ncnc32)o1` [Example T2, 2-(3-chloro-4-(9-((5-methyl-1,3,4-oxadiazol-2-yl)methyl)-6-(1-methylcyclopropoxy)-9H-purin-8-yl)phenyl)acetamide], for which the IC50 was greater than 10000 nM.

Turning to `Cc1ccnc(Cn2c(-c3ccc(N)cc3Cl)nc3c(OC4(C)CC4)ncnc32)c1` [Example T3, 3-chloro-4-(6-(1-methylcyclopropoxy)-9-((4-methylpyridin-2-yl)methyl)-9H-purin-8-yl)aniline], the IC50 was 200 nM.

Consider `Cc1ncc(Cn2c(-c3ccc(CC(N)=O)cc3Cl)nc3c(OC4(C)CC4)ncnc32)s1` [Example T5, 2-(3-chloro-4-(6-(1-methylcyclopropoxy)-9-((2-methylthiazol-5-yl)methyl)-9H-purin-8-yl)phenyl)acetamide], for which the IC50 was greater than 7940 nM.

Turning to `Cc1nc(Cn2c(-c3ccc(CC(N)=O)cc3Cl)nc3c(OC4(C)CC4)ncnc32)cs1` [Example T6, 2-(3-chloro-4-(6-(1-methylcyclopropoxy)-9-((2-methylthiazol-4-yl)methyl)-9H-purin-8-yl)phenyl)acetamide], the IC50 is 7940 nM.

Regarding `CC1(Oc2ncnc3c2nc(-c2ccc(CC(N)=O)cc2Cl)n3CCc2nccs2)CC1` [Example T7, 2-(3-chloro-4-(6-(1-methylcyclopropoxy)-9-(2-(thiazol-2-yl)ethyl)-9H-purin-8-yl)phenyl)acetamide], the IC50 was greater than 10000 nM.

Consider `CNC(=O)COc1ccc(-c2nc3c(OC4(C)CC4)ncnc3n2Cc2cncs2)c(Cl)c1` [Example T8, 2-(3-chloro-4-(6-(1-methylcyclopropoxy)-9-(thiazol-5-ylmethyl)-9H-purin-8-yl)phenoxy)-N-methylacetamide], for which the IC50 was 5010 nM.

Consider `CC1(Oc2ncnc3c2nc(-c2ccc(C(=O)O)cc2Cl)n3Cc2cccc(Cl)c2)CC1` [Example T11, 3-chloro-4-(9-(3-chlorobenzyl)-6-(1-methylcyclopropoxy)-9H-purin-8-yl)benzoic acid], for which the IC50 is 794 nM.

For the molecule `Cc1nnccc1Cn1c(-c2ccc(CC(N)=O)cc2Cl)nc2c(OC3(C)CC3)ncnc21` [Example T17, 2-(3-chloro-4-(6-(1-methylcyclopropoxy)-9-((3-methylpyridazin-4-yl)methyl)-9H-purin-8-yl)phenyl)acetamide], the IC50 is greater than 10000 nM.

`Cc1cnnc(Cn2c(-c3ccc(CC(N)=O)cc3Cl)nc3c(OC4(C)CC4)ncnc32)c1` [Example T18, 2-(3-chloro-4-(6-(1-methylcyclopropoxy)-9-((5-methylpyridazin-3-yl)methyl)-9H-purin-8-yl)phenyl)acetamide]: the IC50 is greater than 10000 nM.

On to `Cc1cc(Cn2c(-c3ccc(CC(N)=O)cc3Cl)nc3c(OC4(C)CC4)ncnc32)ncn1` [Example T19, 2-(3-chloro-4-(6-(1-methylcyclopropoxy)-9-((6-methylpyrimidin-4-yl)methyl)-9H-purin-8-yl)phenyl)acetamide], for which the IC50 is greater than 10000 nM.

With `CC1(Oc2ncnc3c2nc(-c2ccc(CC(N)=O)cc2Cl)n3Cc2nnc(C3CC3)s2)CC1` [Example T20, 2-(3-chloro-4-(9-((5-cyclopropyl-1,3,4-thiadiazol-2-yl)methyl)-6-(1-methylcyclopropoxy)-9H-purin-8-yl)phenyl)acetamide], the IC50 is 2510 nM.

Turning to `CC1(Oc2ncnc3c2nc(-c2ccc(CC(N)=O)cc2Cl)n3Cc2nnc(C3CC3)o2)CC1` [Example T21, 2-(3-chloro-4-(9-((5-cyclopropyl-1,3,4-oxadiazol-2-yl)methyl)-6-(1-methylcyclopropoxy)-9H-purin-8-yl)phenyl)acetamide], the IC50 was greater than 10000 nM.

Consider `COc1cnnc(Cn2c(-c3ccc(CC(N)=O)cc3Cl)nc3c(OC4(C)CC4)ncnc32)c1` [Example T22, 2-(3-chloro-4-(9-((5-methoxypyridazin-3-yl)methyl)-6-(1-methylcyclopropoxy)-9H-purin-8-yl)phenyl)acetamide], for which the IC50 was 3980 nM.

Regarding `CC1(Oc2ncnc3c2nc(-c2ccc(CC(N)=O)cc2Cl)n3Cc2nc(C3CC3)no2)CC1` [Example T23, 2-(3-chloro-4-(9-((3-cyclopropyl-1,2,4-oxadiazol-5-yl)methyl)-6-(1-methylcyclopropoxy)-9H-purin-8-yl)phenyl)acetamide], the IC50 is 1260 nM.

As to `Cc1nc(Cn2c(-c3ccc(CC(N)=O)cc3Cl)nc3c(OC4(C)CC4)ncnc32)sc1C` [Example T24, 2-(3-chloro-4-(9-((4,5-dimethylthiazol-2-yl)methyl)-6-(1-methylcyclopropoxy)-9H-purin-8-yl)phenyl)acetamide], the IC50 is 794 nM.

Take `Cc1nc(C)c(Cn2c(-c3ccc(CC(N)=O)cc3Cl)nc3c(OC4(C)CC4)ncnc32)s1` [Example T25, 2-(3-chloro-4-(9-((2,4-dimethylthiazol-5-yl)methyl)-6-(1-methylcyclopropoxy)-9H-purin-8-yl)phenyl)acetamide]: the IC50 is 1000 nM.

As for `Cc1ncsc1CCn1c(-c2ccc(CC(N)=O)cc2Cl)nc2c(OC3(C)CC3)ncnc21` [Example T26, 2-(3-chloro-4-(6-(1-methylcyclopropoxy)-9-(2-(4-methylthiazol-5-yl)ethyl)-9H-purin-8-yl)phenyl)acetamide], the IC50 is 316 nM.

For the molecule `Cc1noc(C)c1Cn1c(-c2ccc(CC(N)=O)cc2Cl)nc2c(OC3(C)CC3)ncnc21` [Example T27, 2-(3-chloro-4-(9-((3,5-dimethylisoxazol-4-yl)methyl)-6-(1-methylcyclopropoxy)-9H-purin-8-yl)phenyl)acetamide], the IC50 was greater than 10000 nM.

Regarding `CNC(=O)COc1ccc(-c2nc3c(OC4(C)CC4)ncnc3n2Cc2ncc(C)s2)c(Cl)c1` [Example T28, 2-(3-chloro-4-(6-(1-methylcyclopropoxy)-9-((5-methylthiazol-2-yl)methyl)-9H-purin-8-yl)phenoxy)-N-methylacetamide], the IC50 was 631 nM.

With `CNS(=O)(=O)c1ccc(-c2nc3c(OC4(C)CC4)ncnc3n2Cc2cc(C)ccn2)c(Cl)c1` [Example T30, 3-chloro-N-methyl-4-(6-(1-methylcyclopropoxy)-9-((4-methylpyridin-2-yl)methyl)-9H-purin-8-yl)benzenesulfonamide], the IC50 is 631 nM.

In the case of `Cc1cnn(C)c1Cn1c(-c2ccc(CC(N)=O)cc2Cl)nc2c(OC3(C)CC3)ncnc21` [Example T31, 2-(3-chloro-4-(9-((1,4-dimethyl-1H-pyrazol-5-yl)methyl)-6-(1-methylcyclopropoxy)-9H-purin-8-yl)phenyl)acetamide], the IC50 is greater than 10000 nM.

Turning to `Cc1cc(Cn2c(-c3ccc(CC(N)=O)cc3Cl)nc3c(OC4(C)CC4)ncnc32)n(C)n1` [Example T32, 2-(3-chloro-4-(9-((1,3-dimethyl-1H-pyrazol-5-yl)methyl)-6-(1-methylcyclopropoxy)-9H-purin-8-yl)phenyl)acetamide], the IC50 was 2000 nM.

Turning to `Cc1nn(C)cc1Cn1c(-c2ccc(CC(N)=O)cc2Cl)nc2c(OC3(C)CC3)ncnc21` [Example T33, 2-(3-chloro-4-(9-((1,3-dimethyl-1H-pyrazol-4-yl)methyl)-6-(1-methylcyclopropoxy)-9H-purin-8-yl)phenyl)acetamide], the IC50 is greater than 10000 nM.

Take `CC1(Oc2ncnc3c2nc(-c2ccc(CC(N)=O)cc2Cl)n3Cc2ccnc(C(F)(F)F)c2)CC1` [Example T35, 2-(3-chloro-4-(6-(1-methylcyclopropoxy)-9-((2-(trifluoromethyl)pyridin-4-yl)methyl)-9H-purin-8-yl)phenyl)acetamide]: the IC50 is 2510 nM.
